Laboratory results from ChEMBL document CHEMBL4811245, “Design, synthesis and biological evaluation of brain penetrant benzazepine-based histone deacetylase 6 inhibitors for alleviating stroke-induced brain infarction” (Eur J Med Chem, 2021).
Calls of active or inactive are those of the source. The calls are words filed in the database; no cut-off is given here.

Assays:
[1] = Ratio of drug concentration in brain to plasma of mouse at 5 to 50 mg/kg, ip after 2 hrs by HPLC/MS-MS analysis; assay type: ADME, organism-based; settings: dose 5-50 mg/kg, read-out: BPR
[2] = target: T1, Protein deacetylase HDAC6 (Homo sapiens, UniProt Q9UBN7); test: Inhibition of human HDAC6 preincubated for 15 mins followed by substrate addition by fluorescence-based assay
T1 sequence (Q9UBN7 whole entry): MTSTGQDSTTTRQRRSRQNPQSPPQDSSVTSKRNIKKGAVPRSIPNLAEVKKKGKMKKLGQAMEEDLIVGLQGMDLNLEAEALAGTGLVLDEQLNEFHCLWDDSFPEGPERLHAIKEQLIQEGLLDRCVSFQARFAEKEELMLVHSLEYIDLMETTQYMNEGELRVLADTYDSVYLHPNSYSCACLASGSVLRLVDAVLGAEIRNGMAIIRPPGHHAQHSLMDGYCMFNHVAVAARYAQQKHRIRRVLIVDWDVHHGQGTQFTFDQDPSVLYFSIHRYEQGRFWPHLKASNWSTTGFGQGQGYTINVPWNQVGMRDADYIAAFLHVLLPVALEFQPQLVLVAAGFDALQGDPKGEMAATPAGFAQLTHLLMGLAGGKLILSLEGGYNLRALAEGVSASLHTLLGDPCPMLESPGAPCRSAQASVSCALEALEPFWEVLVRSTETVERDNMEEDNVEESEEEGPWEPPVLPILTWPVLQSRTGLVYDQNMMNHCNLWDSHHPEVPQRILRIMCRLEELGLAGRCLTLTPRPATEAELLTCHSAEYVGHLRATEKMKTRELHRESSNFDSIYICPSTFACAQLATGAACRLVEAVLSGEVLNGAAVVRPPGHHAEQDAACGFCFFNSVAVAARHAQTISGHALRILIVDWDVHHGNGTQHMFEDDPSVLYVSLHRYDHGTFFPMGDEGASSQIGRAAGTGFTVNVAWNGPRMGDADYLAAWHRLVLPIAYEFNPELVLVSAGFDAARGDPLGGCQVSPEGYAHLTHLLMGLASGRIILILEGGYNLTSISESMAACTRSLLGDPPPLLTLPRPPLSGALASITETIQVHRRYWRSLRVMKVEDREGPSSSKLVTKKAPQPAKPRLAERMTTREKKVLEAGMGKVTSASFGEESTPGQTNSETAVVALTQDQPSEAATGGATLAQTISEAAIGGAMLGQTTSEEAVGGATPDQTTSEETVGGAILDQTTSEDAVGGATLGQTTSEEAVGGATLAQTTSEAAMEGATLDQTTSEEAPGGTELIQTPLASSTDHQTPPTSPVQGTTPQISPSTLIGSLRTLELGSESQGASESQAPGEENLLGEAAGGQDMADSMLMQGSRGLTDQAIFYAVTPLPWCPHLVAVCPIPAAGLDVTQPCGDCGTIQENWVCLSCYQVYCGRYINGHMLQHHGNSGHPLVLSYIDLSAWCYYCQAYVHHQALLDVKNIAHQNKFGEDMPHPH

Histone deacetylase 1 = Histone deacetylase 1 (Homo sapiens, UniProt Q13547); test: Inhibition of human HDAC1 preincubated for 15 mins followed by substrate addition by fluorescence-based assay
Chain of Histone deacetylase 1 (Q13547 whole entry): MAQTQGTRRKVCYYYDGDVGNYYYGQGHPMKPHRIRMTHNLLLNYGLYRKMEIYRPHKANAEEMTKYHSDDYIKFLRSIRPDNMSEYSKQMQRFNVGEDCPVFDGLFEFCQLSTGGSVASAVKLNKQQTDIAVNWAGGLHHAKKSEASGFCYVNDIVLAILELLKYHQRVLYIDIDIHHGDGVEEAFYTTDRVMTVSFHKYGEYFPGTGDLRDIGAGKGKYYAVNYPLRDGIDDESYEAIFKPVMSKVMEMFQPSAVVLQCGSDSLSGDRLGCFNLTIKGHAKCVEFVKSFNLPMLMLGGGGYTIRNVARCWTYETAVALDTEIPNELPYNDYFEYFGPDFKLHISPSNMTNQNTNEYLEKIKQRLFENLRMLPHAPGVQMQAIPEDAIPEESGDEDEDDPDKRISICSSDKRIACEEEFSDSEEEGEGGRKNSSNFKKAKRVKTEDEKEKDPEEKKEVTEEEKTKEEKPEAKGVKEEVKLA

[3] = Drug concentration in brain of C57 mouse at 20 mg/kg, ip measured after 4 hrs by LC/MS-MS analysis; assay type: ADME, organism-based; settings: read-out: Ct
[4] = Drug concentration in brain of C57 mouse at 20 mg/kg, ip measured after 1 hr by LC/MS-MS analysis; assay type: ADME, organism-based; settings: read-out: Ct
[5] = Drug concentration in plasma of C57 mouse at 20 mg/kg, ip measured after 4 hrs by LC/MS-MS analysis; assay type: ADME, organism-based
[6] = Drug concentration in plasma of C57 mouse at 20 mg/kg, ip measured after 1 hr by LC/MS-MS analysis; assay type: ADME, organism-based
in vivo [7] = settings: C57, mouse, brain/plasma, ip, 20 mg/kg
in vivo [8] = settings: C57, mouse, brain/plasma, ip, 20 mg/kg; remark: listed apart in the source
Rattus norvegicus [9] = test: Neuroprotective activity in Sprague-Dawley rat middle cerebral artery occlusion model assessed as reduction in neurobehavioral defects at 25 mg/kg, ip after 24 hrs by TTC staining based assay; assay type: functional, organism-based
Rattus norvegicus [10] = test: Neuroprotective activity in Sprague-Dawley rat middle cerebral artery occlusion model assessed as reduction in cerebral infarction at 25 mg/kg, ip after 24 hrs by TTC staining based assay (reference value: 21.22%); assay type: functional; design: scale not given: the % may be the effect or the level left
[11] = target: T2, Protein deacetylase HDAC6 (Homo sapiens) (UniProt Q9UBN7); test: Inhibition of HDAC6 in human SH-SY5Y cells assessed as increase in acetylated alpha-tubulin levels incubated for 24 hrs by Western blot analysis; assay type: cell-based; settings: dose 0.1-10 µM
T2 sequence (whole entry): T1 sequence (Q9UBN7 whole entry)

[12] = target: T2, Protein deacetylase HDAC6 (Homo sapiens); test: Inhibition of HDAC6 in human SH-SY5Y cells assessed as increase in acetylated histone H3 levels at 0.1 to 10 uM incubated for 24 hrs by Western blot analysis; assay type: cell-based; settings: dose 0.1-10 µM
[13] = target: T2, Protein deacetylase HDAC6 (Homo sapiens); test: Inhibition of HDAC6 in human SH-SY5Y cells assessed as fold increase in ratio of acetylated histone H3 to histone H3 at 10 uM incubated for 24 hrs by Western blot analysis; assay type: cell-based
[14] = target: T2, Protein deacetylase HDAC6 (Homo sapiens); test: Inhibition of HDAC6 in human SH-SY5Y cells assessed as fold increase in ratio of acetylated alpha-tubulin to alpha-tubulin at 1 uM incubated for 24 hrs by Western blot analysis; assay type: cell-based
[15] = target: T2, Protein deacetylase HDAC6 (Homo sapiens); test: Inhibition of HDAC6 in human SH-SY5Y cells assessed as fold increase in ratio of acetylated alpha-tubulin to alpha-tubulin at 10 uM incubated for 24 hrs by Western blot analysis; assay type: cell-based
[16] = Ratio of drug concentration in brain to plasma of Sprague-Dawley rat at 50 mg/kg, po measured after 60 to 180 mins by LC/MS-MS analysis; assay type: ADME, organism-based; settings: time 60-180 min
Rattus norvegicus [17] = test: Neuroprotective activity in Sprague-Dawley rat middle cerebral artery occlusion model assessed as reduction in neurobehavioral defects at 5 mg/kg, ip after 24 hrs by TTC staining based assay; assay type: functional, organism-based

Compound: O=C(NO)c1cnc(NC2(c3cccc(F)c3)CCCCC2)nc1
- Kp at 2 h [1]: 1.26

Compound: O=C(NO)c1ccc(CN2CCCCc3cc(Cl)ccc32)cc1
- IC50 [2]: 37 nM
- IC50 (Histone deacetylase 1): 819 nM

Compound: O=C(NO)c1ccc(CN2CCc3ccccc3CC2)cc1
- IC50 [2]: 255 nM
- IC50 (Histone deacetylase 1): 804 nM

Compound: O=C(NO)c1ccc(CN2CCCCc3ccc(-c4ccccc4)cc32)cc1
- IC50 (Histone deacetylase 1): 706 nM

Compound: O=C(NO)c1ccc(CN2CCCCc3ccc(C4CC4)cc32)cc1
- IC50 (Histone deacetylase 1): 509 nM

Compound: O=C(NO)c1ccc(CN2CCCOc3ccccc32)cc1
- concentration at 4 h [3]: 12.2 ng/mL
- concentration at 1 h [4]: 111 ng/mL
- concentration at 4 h [5]: 4.29 ng/mL
- concentration at 1 h [6]: 59.4 ng/mL
- Kp at 4 h (in vivo [7]): 2.88
- Kp at 1 h (in vivo [8]): 1.98

Compound: O=C(NO)c1ccc(CN2CCC[S+]([O-])c3ccccc32)cc1 (stereo not given)
- IC50 [2]: 13 nM
- IC50 (Histone deacetylase 1): 166 nM

Compound: COc1ccc2c(c1)N(Cc1ccc(C(=O)NO)cc1)CCCC2
- Activity (Rattus norvegicus [9]): Active
- concentration at 4 h [3]: 18.7 ng/mL
- concentration at 1 h [4]: 957 ng/mL
- concentration at 4 h [5]: 8.18 ng/mL
- concentration at 1 h [6]: 526 ng/mL
- Kp at 4 h (in vivo [7]): 2.29
- Kp at 1 h (in vivo [8]): 1.85

Compound: O=C(NO)c1ccc(CN2CCCSc3ccccc32)cc1
- Activity (Rattus norvegicus [9]): Active
- concentration at 4 h [3]: 16.6 ng/mL
- concentration at 1 h [4]: 220 ng/mL
- Activity (Rattus norvegicus [10]): 11.47%
- IC50 [2]: 1.8 nM
- inhibition [11]: Dose-Dependent Effect
- inhibition [12]: Active
- concentration at 4 h [5]: 7.03 ng/mL
- concentration at 1 h [6]: 96.1 ng/mL
- FC [13]: 1.1
- FC [14]: 1.3
- FC [15]: 1.4
- Kp at 4 h (in vivo [7]): 2.35
- Kp at 1 h (in vivo [8]): 2.3

Compound: O=C(NO)c1ccc(CN2CCCc3cc(Cl)ccc32)cc1
- concentration at 4 h [3]: 13.1 ng/mL
- concentration at 1 h [4]: 468 ng/mL
- concentration at 4 h [5]: 4.13 ng/mL
- concentration at 1 h [6]: 256 ng/mL

Compound: O=C(NO)c1cnc(NC2(c3ccccc3)CC2)nc1
- Kp at 2 h [1]: 1.22

Compound: CN1CCc2c(c3ccccc3n2Cc2ccc(C(=O)NO)cc2)C1 [TUBASTATIN A]
- Activity (Rattus norvegicus [9]): Active
- Kp at 2 h [1]: 0.18
- Activity (Rattus norvegicus [10]): 13.02%

Compound: O=C(NO)c1ccc(CN2CCCCc3ccc(F)cc32)cc1
- IC50 [2]: 19 nM
- IC50 (Histone deacetylase 1): 761 nM

Compound: O=C(NO)c1ccc(CN2CCCc3ccccc3C2)cc1
- IC50 [2]: 100 nM
- IC50 (Histone deacetylase 1): 1000 nM

Compound: COc1ccc(-c2ccccc2)c2c1CCN(Cc1ccc(C(=O)NO)cc1)CC2
- IC50 [2]: 497 nM
- IC50 (Histone deacetylase 1): 826 nM

Compound: O=C(NO)c1ccc(CN2CCCCc3ccccc32)cc1
- IC50 [2]: 6.4 nM
- IC50 (Histone deacetylase 1): 392 nM

Compound: Cc1ccc2c(c1)N(Cc1ccc(C(=O)NO)cc1)CCCC2
- IC50 [2]: 12 nM
- IC50 (Histone deacetylase 1): 377 nM

Compound: COc1ccc(Br)c2c1CCN(Cc1ccc(C(=O)NO)cc1)CC2
- IC50 [2]: 111 nM
- IC50 (Histone deacetylase 1): 385 nM

Compound: COc1cc2c(cc1OC)N(Cc1ccc(C(=O)NO)cc1)CCCC2
- IC50 [2]: 14 nM
- IC50 (Histone deacetylase 1): 295 nM

Compound: COc1cccc2c1CCN(Cc1ccc(C(=O)NO)cc1)CC2
- IC50 [2]: 318 nM
- IC50 (Histone deacetylase 1): 798 nM

Compound: COc1ccc(C2CC2)c2c1CCN(Cc1ccc(C(=O)NO)cc1)CC2
- IC50 (Histone deacetylase 1): 502 nM

Compound: O=C(NO)c1ccc(CNc2cccc3cccnc23)cc1
- Kp [16]: 1.01

Compound: COc1ccc2c(c1)CCN(Cc1ccc(C(=O)NO)cc1)CC2
- IC50 [2]: 29 nM
- IC50 (Histone deacetylase 1): 431 nM

Compound: CCCCC1OC(=O)c2ccccc21 (stereo not given)
- Activity (Rattus norvegicus [17]): Active
